Tested on: STC-1 cells
Assay: GLP-1 production and secretion in gut-derived cells (GLP-1 RIA)
Assay type: cell-based
Experimental: In these in vitro assays using GLP-1-secreting and/or insulin-secreting cells, it was shown that the production and secretion of GLP-1 in the gut-derived cells (STC-1) were modulated by GABA, and the production and release of GABA from the beta-cells were also modulated by GLP-1. The specificity of these assays was determined by including the GABAAR antagonists or GLP-1 receptor antagonist in the assays.
Effects of GABA on stimulation of GLP-1 secretion from gut-derived cell lines. The production and secretion of GLP-1 in the gut-derived cells (STC-1) are examined by GLP-1 RIA. The time and dose dependent effects of GABA on GLP-1 production and secretion are examined in the gut cell lines in the presence of various concentration of GABA in which the specificity is determined by including the GABAAR antagonists in the assay.

NCCCC(=O)O [GABA, gamma-aminobutyric acid]
production and secretion of GLP-1 in gut-derived cells (STC-1): modulated

— patent publication US9463174B2, “Pharmaceutical composition for the treatment of type-1 diabetes” (priority 2008, dated 2016)
